Data as given in patent publication EP4417202A1, “ANTI-CANCER ACTION OF BAG1-SELECTIVE IMIDAZOPYRIDINE COMPOUNDS IN STEROID HORMONE RECEPTOR-POSITIVE BREAST AND PROSTATE CANCER” (Karlsruher Institut für Technologie, priority 2023, dated 2024).

Assays:
Type in all cases: cell-based
ZR75-1 = assay: Clonogenic assay (clonal expansion); settings: Homo sapiens, ZR-75-1; Breast Cancer (ZR75-1), ER+; inhibition of clonal expansion
Description: (§1) Cells were seeded at a density of 1-2×10^3 cells/well in a 6 well plate in RPMI 1640 supplemented with 10% FBS, penicillin (100 u/ml), streptomycin (100 u/ml), and L-glutamine (2 mM). Cells were treated with increasing concentrations of X15695 and cultured for 14 to 21 days. Medium and compounds were exchanged after 7 days. Cells were fixed with methanol/ acetic acid mixture (3:1 v/v) and the formation of colonies was visualized using 0.5% crystal violet (w/v) in 20% methanol (v/v). Plates were scanned in a conventional office scanner (Epson). The area covered by colonies was calculated using the ColonyArea Plugin for ImageJ.

PC3 = assay: Clonogenic assay (clonal expansion); settings: Homo sapiens; Prostate Cancer (PC3), AR-; inhibition of clonal expansion
Description: as §1

DU145 = assay: Clonogenic assay (clonal expansion); settings: Homo sapiens, DU-145; Prostate Cancer (DU145), AR-; inhibition of clonal expansion
Description: as §1

22Rv.1 = assay: Clonogenic assay (clonal expansion); settings: Homo sapiens, 22Rv1; Prostate Cancer (22Rv.1), AR+; inhibition of clonal expansion
Description: as §1

TRMCF-7 cells = assay: Clonogenic assay (clonal expansion)
Description: as §1

HeLa = assay: Clonogenic assay (clonal expansion); settings: HeLa (cervical)
Description: as §1

T47D = assay: Clonogenic assay (clonal expansion); settings: Homo sapiens; Breast Cancer (T47D), ER+; inhibition of clonal expansion
Description: as §1

A549 = assay: Clonogenic assay (clonal expansion); settings: A549 (lung)
Description: as §1

MDA-MB231 = assay: Clonogenic assay (clonal expansion); settings: Homo sapiens, MDA-MB-231; Breast Cancer (MDA-MB231), ER-; inhibition of clonal expansion
Description: as §1

[1] = test system: AR target gene expression; assay: Quantitative RT-PCR of AR target genes in LNCaP cells; settings: 10 nM DHT, 16 h, compared among the six selected imidazopyridines
Description: (§2) MCF-7, T47D and LNCaP cells (5×10^4 each) were seeded in 6-well plates and cultured with hormone-depleted medium for 3 days. Subsequently, the MCF-7 and T47D cells were treated with 10 nM 17-β-estradiol (E2) or dihydrotestosterone (DHT) for the LNCaP cells, 1 µM) X15695 (for the MCF-7 and T47D cells) or 5 µM) for LNCaP cells and X15695 together with E2 or DHT. A 1 h pre-treatment with X15695 was performed prior to treatment with E2 or DHT for 16 h. RNA was extracted using innuPREP RNA mini Kit 2.0 (Analytic Jena, Berlin, Germany). 1 µg RNA per sample was used as input material for the RNA sample preparations. Sequencing libraries were generated using NEBNext® UltraTM RNA Library Prep Kit for Illumina® (NEB, USA) following the manufacturer's recommendations and index codes were added to attribute sequences to each sample. The clustering of the index-coded samples was performed on a cBot Cluster Generation System using PE Cluster Kit cBot-HS (Illumina) according to the manufacturer's instructions. After cluster generation, the library preparations were sequenced on an Illumina platform and paired-end reads were generated. Library preparation and sequencing were carried out by Novogene Europe, Cambridge, UK. […] Select target genes were analyzed by RT-PCR experiments with RNA from the samples used for the RNA-seq analysis. […]

BAG5 with mutant p53 = target: T1, BAG5 with mutant p53 (Homo sapiens, UniProt Q9UL15); assay: Co-immunoprecipitation in T47D cells; settings: 1 µM, 48 h
T1 construct: endogenous in cells; host or cells: T47D
T1 sequence (Q9UL15 whole entry, stated change not applied): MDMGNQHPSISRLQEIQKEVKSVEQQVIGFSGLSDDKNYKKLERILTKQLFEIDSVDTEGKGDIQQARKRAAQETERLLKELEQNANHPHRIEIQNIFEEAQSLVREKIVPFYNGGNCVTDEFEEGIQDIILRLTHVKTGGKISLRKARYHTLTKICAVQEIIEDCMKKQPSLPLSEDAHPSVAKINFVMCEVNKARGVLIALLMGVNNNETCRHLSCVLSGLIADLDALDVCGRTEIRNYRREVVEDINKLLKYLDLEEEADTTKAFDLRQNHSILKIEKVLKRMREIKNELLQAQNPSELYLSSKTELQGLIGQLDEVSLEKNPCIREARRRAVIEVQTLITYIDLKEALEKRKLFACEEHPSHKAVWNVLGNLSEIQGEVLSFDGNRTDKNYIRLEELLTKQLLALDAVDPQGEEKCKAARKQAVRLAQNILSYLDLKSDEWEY
Description: (§3) Cells were harvested, washed with PBS, and lysed using NP-40 lysis buffer. Protein A agarose beads (Thermo Fisher Scientific) were mixed with protein G agarose beads (Thermo Fisher Scientific) (4:1) and preincubated overnight at 4°C with anti-p53 or anti-BAG1 or control IgG antibody. Cellular extracts from X15695 treated and untreated cells (1,000 µg) were incubated with antibody-preincubated protein A/G agarose beads for 3 to 4 h at room temperature. The beads with immunoprecipitated proteins were collected at 4°C by centrifugation at 1,000 g for 5 min and washed 4 to 5 times with NP-40 lysis buffer. The immunoprecipitated proteins were eluted by heating in SDS sample buffer for 5 min at 95°C and resolved on SDS-PAGE. Thereafter, they were subjected to Western blot analysis to detect mortalin, BAG1, BAG2, BAG5 and p53. Cellular extracts containing 50 to 70 µg protein from X15695 treated and untreated cells were used as the input control for the targeted proteins.

BAG2 with mutant p53 = target: T2, BAG2 with mutant p53 (Homo sapiens, UniProt O95816); assay: Co-immunoprecipitation in T47D cells; settings: 1 µM, 48 h
T2 construct: endogenous in cells; host or cells: T47D
T2 sequence (O95816 whole entry, stated change not applied): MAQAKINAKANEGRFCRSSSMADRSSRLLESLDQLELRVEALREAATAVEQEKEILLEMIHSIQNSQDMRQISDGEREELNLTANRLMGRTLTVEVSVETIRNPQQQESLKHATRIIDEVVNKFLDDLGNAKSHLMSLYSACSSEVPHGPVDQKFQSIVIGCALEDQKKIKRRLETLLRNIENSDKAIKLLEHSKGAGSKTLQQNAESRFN
Description: as §3

p53 target genes = assay: Quantitative RT-PCR of p53 target genes in MCF-7 and T47D cells; settings: 1 µM, absence and presence of E2, 16 h
Description: as §2

p53 = assay: Immunofluorescence assay, cellular localization of p53; settings: MCF-7 cells, 1 µM
Description: For immunofluorescence assay, MCF-7, T47D, 22Rv.1, LAPC-4 and LNCaP cells (10^4 each) were seeded on coverslips in a 24-well plate and the desired treatment applied. After three times washing with PBS, cells were fixed with 4% paraformaldehyde solution for 10 min at room temperature. Next, the cells were washed three times with PBS and permeabilized with 0.5% Triton X-100 for 10 min at room temperature. Following three additional washing steps with PBS, cells were treated with 5% bovine serum albumin (w/v) for 1 h at room temperature and subjected to overnight incubation with the primary antibody p53 (DO1 clone or Sp5, Thermo Fisher Scientific), ERα (F-10, Santa-Cruz) or mortalin (D-9, Santa-Cruz) and then washed three times with PBS followed by incubation with goat anti-mouse IgG, Alexa Fluor™ 488 antibody and/or goat anti-rabbit IgG, Alexa Fluor™ 546 antibody (Thermo Fisher Scientific) for 1 h at room temperature in the dark. All subsequent steps were performed in the dark. Cells were washed 3 times with PBS and stained with 0.1 µg/ml DAPI (Thermo Fisher Scientific) solution at 1:10,000 (v/v) dilution for 15 min at room temperature. After three times washing with PBS the cells were mounted in Mowiol® 4-88 on microscope slides and observed by laser-scanning confocal microscopy (Confocal Microscope platform […]6-LSM900, […], Germany).

Fc1ccc(-c2cn3cc(C(F)(F)F)cc(Cl)c3n2)cc1 [Compound X15695, 8-Chloro-2-(4-fluorophenyl)-6-(trifluoromethyl)imidazo[1,2-a]pyridine]
IC50 (ZR75-1): 7.3 ± 1.6 nM
IC50 (PC3): 2040 nM
IC50 (DU145): 1340 nM
IC50 (22Rv.1): 40.2 ± 16.7 nM
inhibition of clonal expansion (TRMCF-7 cells): active
effect on clonal expansion (HeLa): did not have any effect
IC50 (T47D): 10.4 ± 2.8 nM
effect on clonal expansion (A549): did not have any effect
IC50 (MDA-MB231): 5540 nM
attenuation of androgen-induced AR target gene expression [1]: the compound with the most inhibitory activity
interaction of BAG5 with mutant p53 (BAG5 with mutant p53): not BAG5
interaction of BAG2 with mutant p53 (BAG2 with mutant p53): disrupts the interaction of BAG2
expression of p53 target genes (p53 target genes): upregulation of expression of p53 target genes
cellular localization of p53 (p53): accumulated in the nucleus as early as 8 h after X15695 treatment
